Test systems include HL-60(TB) leukemia; IGROV1 ovarian; KM12 colon; NCI/ADR-RES ovarian; OVCAR-3 ovarian; OVCAR-8 ovarian; PC-3 prostate; SF-268 CNS; SR leukemia; UO-31 renal.
Common to all, as to experiment: NCI tumour cell line growth inhibition, 48 h

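Grown in 96-well plates, cells were treated for 48 hours with each compound at five concentrations. Insufficient inhibition: endpoint recorded as highest concentration tested. At the TGI there is no net growth.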

For the compound `Cc1ccc(Nc2nc(=O)[nH]c(=O)[nH]2)cc1N`, the TGI in the assay on HL-60(TB) leukemia, with IGROV1 ovarian, with KM12 colon, with NCI/ADR-RES ovarian, in the assay with OVCAR-3 ovarian and in the assay on OVCAR-8 ovarian was more than 100 µM throughout. Further, the TGI in the assay on PC-3 prostate, with SF-268 CNS and with SR leukemia was more than 100 µM throughout.
For `OC(CC(c1ccccc1)c1ccc(Cl)cc1)c1ccc(Cl)cc1` (stereo unspecified), the TGI is 64.6 µM in the assay with HL-60(TB) leukemia; more than 100 µM in the assay on IGROV1 ovarian; more than 100 µM in the assay on KM12 colon; 95.2 µM with NCI/ADR-RES ovarian; 81.6 µM in the assay on OVCAR-3 ovarian; more than 100 µM in the assay on OVCAR-8 ovarian. Besides, the TGI in the assay with PC-3 prostate is more than 100 µM; with SF-268 CNS it was more than 100 µM; with SR leukemia it was 73.5 µM; in the assay with UO-31 renal, more than 100 µM.
`O=C1c2cc3c(cc2CC12Cc1cc4c(cc1C2)CCC4)CCC3`: the TGI with HL-60(TB) leukemia, with IGROV1 ovarian, in the assay on KM12 colon, in the assay on NCI/ADR-RES ovarian, in the assay on OVCAR-3 ovarian and in the assay on OVCAR-8 ovarian was more than 100 µM each time. For the same compound, the TGI in the assay on PC-3 prostate, with SF-268 CNS, with SR leukemia and in the assay with UO-31 renal was more than 100 µM each time.
In the case of `C=CCc1c(O)c2ccccc2[nH]c1=O`, the TGI in the assay with HL-60(TB) leukemia, in the assay on IGROV1 ovarian, with KM12 colon, in the assay on NCI/ADR-RES ovarian, with OVCAR-3 ovarian and in the assay on OVCAR-8 ovarian was more than 100 µM in each case. Besides, the TGI in the assay with PC-3 prostate, in the assay on SR leukemia and in the assay with UO-31 renal was more than 100 µM throughout.
Consider `COc1ccc(Cn2nc(OCc3ccccn3)c3cc([N+](=O)[O-])ccc32)cc1`, for which the TGI in the assay on HL-60(TB) leukemia, with IGROV1 ovarian, in the assay on KM12 colon, in the assay on NCI/ADR-RES ovarian, in the assay with OVCAR-3 ovarian and in the assay on OVCAR-8 ovarian was more than 100 µM throughout. Further, the TGI with PC-3 prostate, in the assay with SF-268 CNS, in the assay on SR leukemia and in the assay on UO-31 renal was more than 100 µM in each case.
For `CCCCC[C@H](O)[C@H](C)C=C1SCCCS1`, the TGI with HL-60(TB) leukemia, with IGROV1 ovarian, in the assay with KM12 colon, in the assay on NCI/ADR-RES ovarian, in the assay on OVCAR-3 ovarian and with OVCAR-8 ovarian was more than 100 µM each time. In addition, the TGI with PC-3 prostate, with SF-268 CNS, in the assay with SR leukemia and in the assay with UO-31 renal was more than 100 µM throughout.
In the case of `C=C(CCOC)CCC1CCCCC(=C)C1=O` (stereo unspecified), the TGI with HL-60(TB) leukemia, with IGROV1 ovarian, in the assay on KM12 colon, in the assay on NCI/ADR-RES ovarian, in the assay with OVCAR-3 ovarian and in the assay with OVCAR-8 ovarian was more than 100 µM each time. Besides, the TGI in the assay with PC-3 prostate, in the assay with SF-268 CNS, with SR leukemia and with UO-31 renal was more than 100 µM in each case.
On to `COc1ccc(C2CC(c3c(C)nn(-c4ccccc4)c3-c3ccc(C)cc3O)=NN2c2ccccc2)cc1` (stereo unspecified), for which the TGI in the assay with HL-60(TB) leukemia was more than 100 µM; in the assay with IGROV1 ovarian, more than 100 µM; with KM12 colon, more than 43.7 µM; in the assay with NCI/ADR-RES ovarian, more than 100 µM; with OVCAR-3 ovarian, more than 100 µM; in the assay on OVCAR-8 ovarian, more than 100 µM. Besides, the TGI in the assay on PC-3 prostate, in the assay on SF-268 CNS, with SR leukemia and in the assay on UO-31 renal was more than 100 µM throughout.
For the compound `CN(C)c1ccc(/C=C(\NC(=O)c2ccccc2)C(=O)Nc2ccccc2C(=O)NN2C(=O)CSC2c2ccc(N(C)C)cc2)cc1` (stereo unspecified), the TGI with HL-60(TB) leukemia, with IGROV1 ovarian, with KM12 colon, in the assay on NCI/ADR-RES ovarian, in the assay on OVCAR-3 ovarian and with OVCAR-8 ovarian was more than 100 µM each time. For the same compound, the TGI with PC-3 prostate, with SF-268 CNS, in the assay with SR leukemia and with UO-31 renal was more than 100 µM each time.
In the case of `O=C1C/C(=C\O)C(=O)c2ccccc2N1`, the TGI in the assay on HL-60(TB) leukemia, in the assay with IGROV1 ovarian, with KM12 colon, with NCI/ADR-RES ovarian, with OVCAR-3 ovarian and in the assay on OVCAR-8 ovarian was more than 100 µM throughout. The TGI with PC-3 prostate, in the assay on SF-268 CNS, with SR leukemia and in the assay on UO-31 renal was more than 100 µM in each case.
For `Cc1cccc(NC(=O)CC(=O)N2N=C(N3c4ccccc4Sc4ccccc43)CC2c2ccccc2)c1` (stereo unspecified), the TGI in the assay on HL-60(TB) leukemia, with IGROV1 ovarian, in the assay with KM12 colon, in the assay with NCI/ADR-RES ovarian, in the assay with OVCAR-3 ovarian and in the assay with OVCAR-8 ovarian was more than 100 µM in each case. The TGI in the assay on PC-3 prostate, with SF-268 CNS, in the assay on SR leukemia and in the assay on UO-31 renal was more than 100 µM each time.
As to `N#Cc1c(=O)c2cccnc2n2c1[nH]c1ccccc12`, the TGI in the assay with HL-60(TB) leukemia, in the assay with IGROV1 ovarian, in the assay on KM12 colon, in the assay with NCI/ADR-RES ovarian, with OVCAR-3 ovarian and in the assay with OVCAR-8 ovarian was more than 100 µM each time. Also, the TGI with PC-3 prostate, in the assay on SF-268 CNS, in the assay with SR leukemia and with UO-31 renal was more than 100 µM in each case.
For the compound `Cc1ccc2ccccc2c1CC1S(=O)(=O)OCCOS1(=O)=O`, the TGI in the assay on HL-60(TB) leukemia worked out at 5.38 µM; in the assay with KM12 colon it was 29.3 µM; in the assay with NCI/ADR-RES ovarian it was 72.4 µM; with OVCAR-3 ovarian, 19.5 µM; in the assay on OVCAR-8 ovarian it was 37.1 µM; in the assay with PC-3 prostate it was 24.3 µM. The figures for the TGI with SR leukemia and with UO-31 renal were 24.9 µM and 27.1 µM, respectively.

Source of the values: PubChem BioAssay (NCI).
